Experimental findings from patent publication US20090023684A1, “FLUID FOR PERITONEAL DIALYSIS” (priority 2005, published 2009) are described below.

This experiment is described as follows: Body fluid removability of DF using dialysis tube (Experiment 2). To be noted: similar experiment, compared with the CNN results; data omitted. The protocol: Experiments, examining the effects of a cyclic tetrasaccharide on the body fluid removability of DF, were carried out using dialysis tube as follows:
According to the compositions shown in Table 2, DFs comprising glucose or CNN are prepared, respectively. Into a dialysis tube (Molecular weight cut off: 15,000 daltons; diameter: 16 mm; length: 70 mm), 1.5 milliliters each of the DF was poured and sealed using a closer, and then put into one liter of a dialyzing solution, prepared by admixed sodium chloride and dextran (Molecular weight: 60,000 to 90,000 daltons; commercialized by Wako Pure Chemical Industries Ltd., Osaka, Japan) with purified water to give concentrations of 9 g/L and 6 g/L, respectively, for dialysis. The fluid volumes in the dialysis tube at one to 14 hours after the start of dialysis were examined by measuring the weight of the tube. In the experiment, three dialysis tubes were used for a kind of DF. The changes of fluid volumes in the dialysis tubes were measured by calculating the average of the results of three tubes expressed as relative values using each fluid volume at the start of dialysis as 100.

For the compound `OC[C@H]1O[C@@H]2OC[C@H]3O[C@H](O[C@H]4[C@H](O)[C@@H](O)[C@@H](OC[C@H]5O[C@H](O[C@H]1[C@H](O)[C@H]2O)[C@H](O)[C@@H](O)[C@@H]5O)O[C@@H]4CO)[C@H](O)[C@@H](O)[C@@H]3O` [CMM, cyclomaltosylmaltose], the “Fluid volume increase in dialysis tube with CMM used instead of CNN in Table 2” value is on record as “almost the same results”.
